In ChEMBL document CHEMBL4715739, “7,7-Dimethylaporphine and Other Alkaloids from the Bark of Guatteria friesiana” (J Nat Prod, 2016):

Columns and labels:
HL-60 = assay: Cytotoxicity against human HL-60 cells assessed as reduction in cell viability incubated for 72 hrs by Alamar blue assay; assay type: functional, cell-based; details: HL-60, 72 h
HepG2 = assay: Cytotoxicity against human HepG2 cells assessed as reduction in cell viability incubated for 72 hrs by Alamar blue assay; assay type: functional, cell-based; details: HepG2, 72 h
K562 = assay: Cytotoxicity against human K562 cells assessed as reduction in cell viability incubated for 72 hrs by Alamar blue assay; assay type: functional, cell-based; details: K562, 72 h
B16-F10 = assay: Cytotoxicity against mouse B16-F10 cells assessed as reduction in cell viability incubated for 72 hrs by Alamar blue assay; assay type: functional, cell-based; details: B16-F10, 72 h
[1] = Cytotoxicity against human PBMC cells assessed as reduction in cell viability incubated for 72 hrs by Alamar blue assay; assay type: cell-based

`COc1cccc2c1C(=O)c1c(O)c3c(c(O)c1C2=O)C[C@@](O)(C(=O)CO)C[C@@H]3O[C@H]1C[C@H](N)[C@H](O)[C@H](C)O1` [DOXORUBICIN] showed an IC50 (HL-60) of 0.8 µM, an IC50 (HepG2) of 0.2 µM and an IC50 (K562) of 0.7 µM. The IC50 (B16-F10) was 2.3 µM.

Compound `O=C1c2ccccc2-c2c3c(cc4ccnc1c24)OCO3` [LIRIODENINE] has an IC50 (HL-60) of 5.5 µM, an IC50 (HepG2) of 8.3 µM and an IC50 [1] of 34.8 µM. For the same compound, the IC50 (K562) was 5 µM and the IC50 (B16-F10) was greater than 10 µM.
